Measured values as given in US6593347B2, “Nitrosated and nitrosylated nonsteroidal antiinflammatory compounds, compositions and methods of use” (NitroMed, Inc., priority 1998, dated 2003).
Where a name gives a salt, the structure may show the parent alone.

Experiments:
[1] = tested on: phenylbenzoquinone-induced writhing; assay: phenylbenzoquinone-induced writhing test in mice (analgesic activity); assay type: in vivo; conditions: ratio of activity relative to the parent NSAID; oral gavage 1 hour prior to i.p. phenylbenzoquinone; male CD-1 mice
Method: The phenylbenzoquinone-induced writhing test in mice was used to measure analgesic activity. The ability of the compounds to inhibit phenylbenzoquinone-induced writhing in mice was measured using the method of Siegmund et al, Proc. Soc. Exp. Biol. Med. 95: 729-731, 1957. Male CD-1 mice (Charles River Laboratories, Wilmington, Mass.) weighing 20-25 g were fasted overnight. Vehicle or compounds were administered by oral gavage 1 hour prior to i.p. injection of 2 mg/kg of phenylbenzoquinone. Five minutes after the i.p. injection of phenylbenzoquinone, the number of writhes in a 5 minute period was counted.

[2] = tested on: gastric lesion; assay: rat gastric lesion test; assay type: in vivo, rats
Method: The rat gastric lesion test, described by Kitagawa et al, J. Phirmacol. Exp. Ther., 253:1133-1137 (1990), and Al-Ghamdi et al, J. Int. Med. Res., 19:2242 (1991), was used to evaluate the activity of compounds to produce gastric lesion. Male Sprague Dawley rats (Charles River Laboratories, Wilmington, Mass.) weighing 230-250 g were used for the experiments. The rats were housed with laboratory chow and water ad libitum prior to the study. The rats were fasted for 24 hours with free access to water and then dosed by oral gavage with vehicle or with test compounds given at a volume of 0.5 mL/100 g. Food was withheld for 18 hours after the initial dosing. Rats were euthanized by CO2 eighteen hours after dosing. The stomachs were dissected along the greater curvature, washed with a directed stream of 0.9% saline and pinned open on a sylgard based petri dish for examination of the hemorrhagic lesion. Gastric lesion score was expressed in mm and calculated by summning the length of each lesion.

[3] = tested on: carrageenan rat paw edema; assay: rat paw edema test (antiinflammatory activity); assay type: in vivo; conditions: ratio of activity relative to the parent NSAID; oral gavage one hour prior to carrageenan; paw volume three hours later; male Sprague-Dawley rats
Method: The rat paw edema test was used to measure antiinflammatory activity. The rat paw edema test was performed according to the method of Winter et al, Proc. Soc. Exp. Biol. Med. 111: 544-547, 1962. Male Sprague-Dawley rats (250-275 g) were fasted overnight and dosed by oral gavage with vehicle or suspensions of compound one hour prior to the subplantar injection of 50 μl of 1% suspension of carrageenan. Three hours later, the paw volume was measured and compared with the initial volume measured immediately after carrageenan injection.

[4] = ratio of activity relative to the parent NSAID, oral gavage, fasted rats, eighteen hours after dosing
[5] = 100 μmole/Kg, ratio of activity relative to the parent NSAID, oral gavage, fasted rats, eighteen hours after dosing

2-{2-[(2,6-Dichlorophenyl)amino]phenyl}-1-[2-(methyl{[(nitrosothio) cyclohexyl]methyl}amino)ethylthio]ethan-1-one [Example 32]
Relative Activity Analgesia [1]: 1

CN1CCC(CCOC(=O)Cc2ccccc2Nc2c(Cl)cccc2Cl)(SN=O)CC1 (as salt: citrate) [Example 13, 2-[1-Methyl-4-(nitrosothio)-4-piperidyl]ethyl 2-{2-[(2,6-dichlorophenyl)amino]phenyl}acetate citrate]
melting point: 130 °C

O=C(O)Cc1ccccc1Nc1c(Cl)cccc1Cl [Diclofenac, diclofenac, reference compound]
Relative Activity Gastric Lesion [2, 4]: 1
Relative Activity Analgesia [1]: 1
Relative Activity Antiinflammation [3]: 1

CC1(SN=O)CCN(CCOC(=O)Cc2ccccc2Nc2c(Cl)cccc2Cl)CC1.Cl [Example 1, 2-[4-Methyl-4-(nitrosothio)piperidyl]ethyl 2-{2-[(2,6-dichlorophenyl)amino]phenyl}acetate hydrochloride]
Relative Activity Gastric Lesion [2, 4]: 0.1
Relative Activity Analgesia [1]: 1.5
Relative Activity Antiinflammation [3]: 1.2

CN(CCOC(=O)Cc1ccccc1Nc1c(Cl)cccc1Cl)CC1(SN=O)CCCCC1.Cl [Example 2, 2-(Methyl{[(nitrosothio)cyclohexyl]methyl}amino)ethyl 2-{2-[(2,6-dichlorophenyl)amino]phenyl}acetate hydrochloride]
Relative Activity Gastric Lesion [2, 4]: 0.02
Relative Activity Analgesia [1]: 1
Relative Activity Antiinflammation [3]: 1.2

CN(CCCOC(=O)Cc1ccccc1Nc1c(Cl)cccc1Cl)CC1(SN=O)CCCCC1 [Example 4, 3-{Methyl{[(nitrosothio)cyclohexyl]methyl}amino)propyl 2-{2-[(2,6-dichlorophenyl)amino]phenyl}acetate]
Relative Activity Gastric Lesion ([2]; rat, in vivo, po): 0.01
Relative Activity Analgesia [1]: 0.9
Relative Activity Antiinflammation [3]: 1.3

Cl.O=NSC1(CCOC(=O)Cc2ccccc2Nc2c(Cl)cccc2Cl)CCNCC1 [Example 6, 2-[4-(Nitrosothio)-4-piperdyl]ethyl 2-{2-[(2,6-dichlorophenyl)amino]phenyl}acetate hydrochloride]
Relative Activity Gastric Lesion [2, 4]: 0.02

CC(C)(CN1CCN(CCOC(=O)Cc2ccccc2Nc2c(Cl)cccc2Cl)CC1)SN=O.O=C(O)CC(O)(CC(=O)O)C(=O)O [Example 8, 2-{4-[2-Methyl-2-(nitrosothio)propyl]piperazinyl}ethyl 2-{2-[(2,6-dichlorophenyl)amino]phenyl}acetate citrate]
Relative Activity Gastric Lesion [2, 4]: 0.04
Relative Activity Analgesia [1]: 1.2
Relative Activity Antiinflammation [3]: 1.4

CN1CCC(CN(C)CCCOC(=O)Cc2ccccc2Nc2c(Cl)cccc2Cl)(SN=O)CC1 [Example 12, 3-(Methyl{[1-methyl-4-(nitrosothio)(4-piperidyl)]methyl}amino)propyl 2-{2-[(2,6-dichlorophenyl)amino]pheny}acetate]
Relative Activity Gastric Lesion [2, 4]: 0.06

CN1CCC(CCOC(=O)Cc2ccccc2Nc2c(Cl)cccc2Cl)(SN=O)CC1 [Example 13, 2-[1-Methyl-4-(nitrosothio)-4-piperidyl]ethyl 2-{2-[(2,6-dichlorophenyl)amino]phenyl}acetate citrate]
Relative Activity Gastric Lesion [2, 5]: 0.1 (100 μmole/Kg)
Relative Activity Antiinflammation [3]: 1

COc1ccc2cc([C@H](C)C(=O)OCCC3(SN=O)CCN(C)CC3)ccc2c1.O=C(O)CC(O)(CC(=O)O)C(=O)O [Example 15, 2-[1-Methyl-4-(nitrosothio)-4-piperidyl]ethyl (2S) 2-(6-methoxy(2-naphthyl)) propanoate citrate]
Relative Activity Gastric Lesion [2, 5]: 0.1 (100 μmole/Kg)
Relative Activity Analgesia [1]: 1
Relative Activity Antiinflammation [3]: 1

COc1ccc2c(c1)c(CC(=O)OCCC1(SN=O)CCN(C)CC1)c(C)n2C(=O)c1ccc(Cl)cc1.O=C(O)CC(O)(CC(=O)O)C(=O)O [Example 17, 2-[1-Methyl-4-(nitrosothio)-4-piperidyl]ethyl 2{1-[(4-chlorophenyl)carbonyl]-5-methoxy-2-methylindol-3-yl}acetate citrate]
Relative Activity Gastric Lesion [2, 5]: <0.07 (100 μmole/Kg)
Relative Activity Analgesia [1]: 1

COc1ccc2cc([C@H](C)C(=O)OCCN(C)CC3(SN=O)CCN(C)CC3)ccc2c1.Cl [Example 22, 2-(Methyl{[1-methyl-4-(nitrosothio)(4-piperidyl)]methyl}amino)ethyl (2S)-2-(6-methoxy(2-naphthyl))propanoate hydrochloride]
Relative Activity Gastric Lesion [2, 5]: 0.1 (100 μmole/Kg)
Relative Activity Analgesia [1]: 1
Relative Activity Antiinflammation [3]: 1

CN(CCSC(=O)Cc1ccccc1Nc1c(Cl)cccc1Cl)CC(C)(C)SN=O.Cl [Example 31, 2-{2-[(2,6-Dichlorophenyl)amino]phenyl}-1-(2-{methyl[2-methyl-2-(nitrosothio)propyl]amino}ethylthio)ethan-1-one hydrochloride]
Relative Activity Gastric Lesion [2, 5]: 0.02 (100 μmole/Kg)
Relative Activity Analgesia [1]: 1
Relative Activity Antiinflammation [3]: 1

CN(Cc1ccc(OC(=O)Cc2ccccc2Nc2c(Cl)cccc2Cl)cc1)CC(C)(C)SN=O [Example 33, 4-({Methyl[2-methyl-2-(nitrosothio)propyl]amino}methyl)phenyl 2-{2-[(2,6-dichlorophenyl)amino]phenyl}acetate]
Relative Activity Analgesia [1]: 1
Relative Activity Antiinflammation [3]: 1

COc1ccc2cc([C@H](C)C(=O)OCCCN3C(=O)OC[C@H]3C(C)(C)SN=O)ccc2c1 [Example 44, 3-{(4S)-4-[1-Methyl-1-(nitrosothio)ethyl]-2-oxo-1,3-oxazolidin-3-yl}propyl (2S)-2-(6-methoxy(2-naphthyl))propanoate]
melting point: 116 to 117 °C

COc1ccc2cc([C@H](C)C(=O)OC[C@@H]3NC(=O)[C@@H](C(C)(C)SN=O)NC3=O)ccc2c1 [Example 47, {(2S,5S)-5-[1-Methyl-1-(nitrosothio)ethyl]-3,6-dioxopiperazin-2-yl}methyl (2S)-2-(6-methoxy(2-naphthyl))propanoate]
melting point: > 180 °C (dec.)
